# Source: patent US20050026959A1, “Ethanol solvate of (-)-cis-2-(2-chloropheny)-5,7-dihydroxy-8-[4R-(3S-hydroxy-1-methyl)piperidinyl]-4H-1benzopyran-4-one” (Aventis Pharma Deutschland GmbH, priority 2000, published 2005)
# Key:
# [1] = Hygroscopicity of the solid form; type: physicochemical
# Description: Form II is hygroscopic. It can be used in water free form or in a form with a certain water content. The use in a form, which is essentially free from water is preferred.
# [2] = system: cyclin dependent kinases (CDKs) including CDK1, CDK2, CDK4, CDK6 and CDK7; conditions: cdk1/cyclin B; cdk2/cyclin A; cdk2/cyclin E; cdk4/cyclinD; cdk6/cyclin D; cdk7/cyclin H; Int. J. Oncology 9: 1143-1168 (1996); cited from earlier work
hygroscopicity [1],Structure (SMILES),inhibition of cyclin dependent kinases [2]
hygroscopic,"CN1CC[C@H](c2c(O)cc(O)c3c(=O)cc(-c4ccccc4Cl)oc23)[C@H](O)C1.Cl (relative stereo) [Form II, (−)-cis-2-(2-chlorophenyl)-5,7-dihydroxy-8-[4R-(3S-hydroxy-1-methyl)piperidinyl]-4H-1-benzopyran-4-one hydrochloride]",
,"CN1CC[C@H](c2c(O)cc(O)c3c(=O)cc(-c4ccccc4Cl)oc23)[C@H](O)C1 [Flavopiridol, (−)-cis-2-(2-chlorophenyl)-5,7-dihydroxy-8-[4R-(3S-hydroxyl-1-methyl)piperidinyl]-4H-1-benzopyran-4-one]",strong inhibitor
